Reference: PubChem BioAssay AID248 (DTP/NCI, 2004)
Values joined by “and” are separate entries in the source; they are usually repeats but may differ in a detail not shown here. Identical values can stand only once. Inconclusive results and toxic doses are left out. No stated cut-off is given here; in the data, active means T/C of 150% or more; inactive means T/C below 125%.

Tested on: L1210 leukemia ip in BDF1 mice, survival T/C
Assay: NCI In Vivo Anticancer Drug Screen. Data for tumor model L1210 Leukemia (intraperitoneal) in B6D2F1 (BDF1) mice
Conditions: endpoint: mean survival time, higher = longer survival
Outline: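 Ratio derived from survival: compound-dosed mice over vehicle-dosed mice, all bearing a transplantable tumor.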

[1] = dose: 25.0 mg/kg/injection, schedule: Q01DX009 (ip), vehicle: saline with Tween-80
[2] = dose: 100.0 mg/kg/injection, schedule: Q01DX009 (ip), vehicle: Klucel (hydroxypropylcellulose) (HPC)
[3] = dose: 100.0 mg/kg/injection, schedule: Q04DX003 (ip), vehicle: saline
[4] = dose: 200.0 mg/kg/injection, schedule: Q01DX009 (ip), vehicle: Klucel (hydroxypropylcellulose) (HPC)
[5] = dose: 200.0 mg/kg/injection, schedule: Q04DX003 (ip), vehicle: saline
[6] = dose: 400.0 mg/kg/injection, schedule: Q01DX009 (ip), vehicle: Klucel (hydroxypropylcellulose) (HPC)
[7] = dose: 400.0 mg/kg/injection, schedule: Q04DX003 (ip), vehicle: saline
[8] = dose: 100.0 mg/kg/injection, schedule: Q04DX003 (ip), vehicle: saline with Tween-80
[9] = dose: 200.0 mg/kg/injection, schedule: Q04DX003 (ip), vehicle: saline with Tween-80

Measured: T/C

COC(=O)c1ccc(/C=C/c2ccc(S(=O)(=O)F)cc2)cc1
inactive: dose: 100.0 mg/kg/injection, schedule: Q01DX001 (ip), vehicle: Klucel (hydroxypropylcellulose) (HPC) 91 % of control | dose: 200.0 mg/kg/injection, schedule: Q01DX001 (ip), vehicle: Klucel (hydroxypropylcellulose) (HPC) 91 % of control | dose: 400.0 mg/kg/injection, schedule: Q01DX001 (ip), vehicle: Klucel (hydroxypropylcellulose) (HPC) 97 % of control

CN=C(c1ccc(NC(=O)c2ccc(C(=O)Nc3ccc(C(=NC)N(C)C(C)=O)cc3)c(Cl)c2)cc1)N(C)C(C)=O
inactive: dose: 25.0 mg/kg/injection, schedule: Q01DX015 (ip), vehicle: methylcellulose (MC) 95 % of control | dose: 50.0 mg/kg/injection, schedule: Q01DX015 (ip), vehicle: methylcellulose (MC) 93 % of control | dose: 75.0 mg/kg/injection, schedule: Q01DX015 (ip), vehicle: methylcellulose (MC) 96 % of control | dose: 200.0 mg/kg/injection, schedule: Q01DX015 (ip), vehicle: methylcellulose (MC) 93 % of control

O=[N+]([O-])c1cc[n+]([O-])cc1
inactive: dose: 6.25 mg/kg/injection, schedule: Q01DX009 (ip), vehicle: saline with Tween-80 98 % of control | dose: 6.25 mg/kg/injection, schedule: Q04DX003 (ip), vehicle: saline with Tween-80 96 % of control | dose: 12.5 mg/kg/injection, schedule: Q01DX009 (ip), vehicle: saline with Tween-80 96 % of control | dose: 12.5 mg/kg/injection, schedule: Q04DX003 (ip), vehicle: saline with Tween-80 96 % of control | [1] 91 % of control | dose: 25.0 mg/kg/injection, schedule: Q04DX003 (ip), vehicle: saline with Tween-80 95 % of control

C=C(C)C(=O)OC1CC23OC2CC(COC3O)C2OC2C2OC(=O)C(=C)C12 (centres undefined)
inactive: dose: 6.25 mg/kg/injection, schedule: Q01DX009 (ip), vehicle: acetone 98 % of control | dose: 12.5 mg/kg/injection, schedule: Q01DX001 (ip), vehicle: acetone 106 % of control | dose: 12.5 mg/kg/injection, schedule: Q01DX009 (ip), vehicle: acetone 104 % of control | dose: 12.5 mg/kg/injection, schedule: Q04DX003 (ip), vehicle: acetone 90 % of control | dose: 25.0 mg/kg/injection, schedule: Q01DX001 (ip), vehicle: acetone 106 % of control | dose: 25.0 mg/kg/injection, schedule: Q04DX003 (ip), vehicle: acetone 104 % of control | dose: 50.0 mg/kg/injection, schedule: Q01DX001 (ip), vehicle: acetone 109 % of control

CC(=O)Oc1c(Br)c(-c2c(C)cc(C)c(Br)c2C)c(OC(C)=O)c(Br)c1-c1c(C)cc(C)c(Br)c1C
inactive: [2] 97 % of control | [3] 113 % of control | [4] 96 % of control | [5] 95 % of control | [6] 97 % of control | [7] 101 % of control

NCCN=C(N)C(N)=NCCN
inactive: dose: 100.0 mg/kg/injection, schedule: Q04DX002 (ip), vehicle: saline 100 % of control | dose: 200.0 mg/kg/injection, schedule: Q04DX002 (ip), vehicle: saline 103 % of control | dose: 400.0 mg/kg/injection, schedule: Q04DX002 (ip), vehicle: saline 110 % of control

CC(=O)Nc1ccc2c(c1)C(S)c1ccccc1-2 (centres undefined)
inactive: dose: 100.0 mg/kg/injection, schedule: Q01DX001 (ip), vehicle: carboxymethylcellulose (CMC) 112 % of control | dose: 200.0 mg/kg/injection, schedule: Q01DX001 (ip), vehicle: carboxymethylcellulose (CMC) 114 % of control | dose: 400.0 mg/kg/injection, schedule: Q01DX001 (ip), vehicle: carboxymethylcellulose (CMC) 101 % of control

CC(=O)C(N)CCC(=O)O (centres undefined)
inactive: dose: 100.0 mg/kg/injection, schedule: Q01DX009 (ip), vehicle: saline 106 % of control | [3] 97 % of control | dose: 200.0 mg/kg/injection, schedule: Q01DX009 (ip), vehicle: saline 101 % of control | [5] 97 % of control | dose: 400.0 mg/kg/injection, schedule: Q01DX009 (ip), vehicle: saline 95 % of control | [7] 94 % of control

CC(C)COC(c1ccc2c(c1)OCO2)C(C)Br (centres undefined)
inactive: dose: 100.0 mg/kg/injection, schedule: Q04DX002 (ip), vehicle: saline with Tween-80 96 % of control | dose: 200.0 mg/kg/injection, schedule: Q04DX002 (ip), vehicle: saline with Tween-80 101 % of control | dose: 400.0 mg/kg/injection, schedule: Q04DX002 (ip), vehicle: saline with Tween-80 107 % of control

CCCCCCCCCCCCCCCCCCOCCCCCCCCCCCC
inactive: dose: 100.0 mg/kg/injection, schedule: Q01DX001 (ip), vehicle: other 97 % of control | dose: 200.0 mg/kg/injection, schedule: Q01DX001 (ip), vehicle: other 92 % of control | dose: 400.0 mg/kg/injection, schedule: Q01DX001 (ip), vehicle: other 93 % of control

O=c1nc2n(CCN(CCO)CCO)c3cc(Cl)c(Cl)cc3nc-2c(=O)[nH]1
inactive: dose: 5.0 mg/kg/injection, schedule: Q01DX009 (ip), vehicle: saline 107 % of control | dose: 10.0 mg/kg/injection, schedule: Q01DX001 (ip), vehicle: saline 95 % of control | dose: 10.0 mg/kg/injection, schedule: Q01DX009 (ip), vehicle: saline 93 % of control | dose: 20.0 mg/kg/injection, schedule: Q01DX001 (ip), vehicle: saline 102 % of control | dose: 20.0 mg/kg/injection, schedule: Q01DX009 (ip), vehicle: saline 104 % of control | dose: 40.0 mg/kg/injection, schedule: Q01DX001 (ip), vehicle: saline 91 % of control

COC1OC(COS(=O)(=O)c2ccc(C)cc2)C(OS(=O)(=O)c2ccc(C)cc2)C(OS(=O)(=O)c2ccc(C)cc2)C1OS(=O)(=O)c1ccc(C)cc1 (centres undefined)
inactive: [8] 91 % of control | [9] 91 % of control | dose: 400.0 mg/kg/injection, schedule: Q04DX003 (ip), vehicle: saline with Tween-80 90 % of control

O=S(CCCl)CCCl
inactive: dose: 0.21 mg/kg/injection, schedule: Q04DX003 (ip), vehicle: Klucel (hydroxypropylcellulose) (HPC) 95 % of control | dose: 0.42 mg/kg/injection, schedule: Q04DX003 (ip), vehicle: Klucel (hydroxypropylcellulose) (HPC) 93 % of control | dose: 0.85 mg/kg/injection, schedule: Q04DX003 (ip), vehicle: Klucel (hydroxypropylcellulose) (HPC) 98 % of control | dose: 0.9 mg/kg/injection, schedule: Q01DX009 (ip), vehicle: Klucel (hydroxypropylcellulose) (HPC) 116 % of control | dose: 1.3 mg/kg/injection, schedule: Q01DX009 (ip), vehicle: Klucel (hydroxypropylcellulose) (HPC) 116 % of control | dose: 2.0 mg/kg/injection, schedule: Q04DX003 (ip), vehicle: Klucel (hydroxypropylcellulose) (HPC) 120 % of control | dose: 2.6 mg/kg/injection, schedule: Q04DX003 (ip), vehicle: Klucel (hydroxypropylcellulose) (HPC) 123 % of control | dose: 6.0 mg/kg/injection, schedule: Q04DX003 (ip), vehicle: Klucel (hydroxypropylcellulose) (HPC) 115 % of control | dose: 8.0 mg/kg/injection, schedule: Q01DX009 (ip), vehicle: Klucel (hydroxypropylcellulose) (HPC) 109 % of control | dose: 8.0 mg/kg/injection, schedule: Q04DX003 (ip), vehicle: Klucel (hydroxypropylcellulose) (HPC) 114 % of control | dose: 12.5 mg/kg/injection, schedule: Q04DX003 (ip), vehicle: Klucel (hydroxypropylcellulose) (HPC) 90 % of control | dose: 50.0 mg/kg/injection, schedule: Q04DX003 (ip), vehicle: Klucel (hydroxypropylcellulose) (HPC) 89 % of control

COc1c(N)cc2c(c1C)OC(C)(C)C=C2
inactive: [1] 109 % of control | dose: 50.0 mg/kg/injection, schedule: Q01DX009 (ip), vehicle: saline with Tween-80 101 % of control | [8] 101 % of control and 94 % of control | [9] 100 % of control

CC(C)N(C(=O)Nc1cccc(F)c1)C1CCCCC1
inactive: dose: 50.0 mg/kg/injection, schedule: Q01DX009 (ip), vehicle: gum acacia 105 % of control | dose: 100.0 mg/kg/injection, schedule: Q01DX009 (ip), vehicle: gum acacia 100 % of control and 88 % of control | dose: 200.0 mg/kg/injection, schedule: Q01DX009 (ip), vehicle: gum acacia 94 % of control | dose: 400.0 mg/kg/injection, schedule: Q01DX009 (ip), vehicle: gum acacia 90 % of control

Cc1c(N=CN(C)C)c(=O)n(-c2ccccc2)n1C
inactive: [2] 94 % of control | dose: 100.0 mg/kg/injection, schedule: Q04DX003 (ip), vehicle: Klucel (hydroxypropylcellulose) (HPC) 110 % of control | [4] 93 % of control | dose: 200.0 mg/kg/injection, schedule: Q04DX003 (ip), vehicle: Klucel (hydroxypropylcellulose) (HPC) 105 % of control | [6] 100 % of control | dose: 400.0 mg/kg/injection, schedule: Q04DX003 (ip), vehicle: Klucel (hydroxypropylcellulose) (HPC) 107 % of control
